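Step 1: Grow cells in 96-well plates. Step 2: Expose to compound for 48 hours at 5 concentrations. Step 3: Interpolate endpoints linearly; if unreached, use highest concentration. GI50: concentration for 50% inhibition of growth. The concentration for full growth arrest is given as TGI.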
Experiments:
Test in all cases: inhibition of tumour cell growth, NCI panel, 48 h
A498 renal = test system: A498 renal
A549 NSCLC = test system: A549 NSCLC
EKVX NSCLC = test system: EKVX NSCLC
HCT-15 colon = test system: HCT-15 colon
HOP-62 NSCLC = test system: HOP-62 NSCLC
IGROV1 ovarian = test system: IGROV1 ovarian
M14 melanoma = test system: M14 melanoma
MOLT-4 leukemia = test system: MOLT-4 leukemia
SN12C renal = test system: SN12C renal
U251 CNS = test system: U251 CNS

Structure (SMILES) | TGI (A498 renal) [µM] | TGI (A549 NSCLC) [µM] | TGI (EKVX NSCLC) [µM] | TGI (HCT-15 colon) [µM] | TGI (HOP-62 NSCLC) [µM] | TGI (IGROV1 ovarian) [µM] | TGI (M14 melanoma) [µM] | TGI (MOLT-4 leukemia) [µM] | TGI (SN12C renal) [µM] | TGI (U251 CNS) [µM] | GI50 (A498 renal) [µM] | GI50 (A549 NSCLC) [µM] | GI50 (EKVX NSCLC) [µM] | GI50 (HCT-15 colon) [µM] | GI50 (HOP-62 NSCLC) [µM] | GI50 (IGROV1 ovarian) [µM] | GI50 (M14 melanoma) [µM] | GI50 (MOLT-4 leukemia) [µM] | GI50 (SN12C renal) [µM] | GI50 (U251 CNS) [µM]
COc1cc2c(cc1OC)C1Cc3cc(OC)c(OC)cc3C(C2)N1C | > 100 | > 100 | > 100 | > 100 | > 100 | > 75 | > 100 | > 100 | > 100 | > 100 | – | – | – | – | – | – | – | – | – | –
COc1ccc(C2C=C(c3ccc4c(c3)OCO4)Oc3c2c(=O)oc2ccccc32)cc1OC (centres undefined) | 7.21 | > 100 | > 100 | > 100 | > 100 | > 100 | > 100 | > 100 | > 100 | > 100 | – | – | – | – | – | – | – | – | – | –
CN1C/C=C/CCOc2cccc(c2)-c2ccnc(n2)Nc2cccc(c2)C1 | 0.11 | 1.12 | 0.666 | 3.18 | 0.376 | 0.338 | 0.181 | 0.959 | 2.73 | 1.07 | 0.0356 | 0.0394 | 0.0501 | 0.036 | 0.0422 | 0.0324 | 0.0391 | 0.0396 | 0.0442 | 0.0421
CC#CC1C2CCCC1(CSc1ccccc1)NC(=O)O2 (centres undefined) | > 100 | > 100 | > 100 | > 100 | > 100 | > 100 | > 100 | > 100 | > 100 | > 100 | – | – | – | – | – | – | – | – | – | –
CC(=O)OC12COC1CC(O)C1(C)C(=O)C(O)C3=C(C)C(O)CC(O)(C(OC(=O)c4ccccc4)C21)C3(C)C (centres undefined) | > 100 | > 100 | > 100 | > 100 | > 100 | > 100 | > 100 | > 100 | > 100 | > 74.3 | – | – | – | – | – | – | – | – | – | –
c1ccc2c(c1)N=C(c1cccc3ccccc13)CC(c1ccc3c(c1)OCO3)S2 (centres undefined) | > 100 | > 100 | > 100 | – | > 100 | > 100 | > 100 | > 100 | > 100 | > 100 | – | – | – | – | – | – | – | – | – | –
COc1cc(-c2c(C#N)c(N)nc(N3CCOCC3)c2C#N)cc(OC)c1OC | > 100 | > 100 | > 100 | > 100 | > 100 | > 100 | > 100 | > 100 | > 100 | > 100 | > 100 | > 100 | > 100 | > 100 | 30.9 | 92.1 | > 100 | > 100 | > 100 | > 100
CS(=O)(=O)CC(=O)c1ccccc1 | > 100 | > 100 | > 100 | > 100 | > 100 | > 100 | > 100 | > 100 | > 100 | > 100 | – | – | – | – | – | – | – | – | – | –
COc1ccc(-n2ccnc2-c2cc(OC)c(OC)c(OC)c2)cc1 | 5.14 | > 100 | > 100 | > 100 | > 100 | > 100 | > 100 | > 100 | > 100 | > 100 | 0.798 | 6.57 | 34 | 1.53 | 3.59 | 2.42 | 2.46 | 5.75 | 6.24 | 3.98
CC(C)(C)CC(N)=O | > 100 | > 100 | > 100 | > 100 | > 100 | > 100 | > 100 | – | > 100 | > 100 | – | – | – | – | – | – | – | – | – | –
C=C(C(=C)P(=S)(c1ccccc1)c1ccccc1)P(=S)(c1ccccc1)c1ccccc1 | > 100 | > 100 | > 100 | > 100 | > 100 | > 100 | > 100 | > 100 | > 100 | > 100 | – | – | – | – | – | – | – | – | – | –
CC(=O)N1N=C2/C(=C/c3ccc(Cl)cc3)CC(C)CC2C1c1ccc(Cl)cc1 (centres undefined) | 28.7 | > 100 | 92.7 | > 100 | 54.6 | 67.2 | 35.3 | 39.3 | 40.4 | 86.8 | 13 | 20.6 | 21.5 | 31.9 | 22.1 | 22.5 | 17.7 | 11.6 | 19.9 | 25.1
CCCCCCCCC(=O)OCC(CS[As](C)C)OC(=O)CCCCCCCC (centres undefined) | 10.7 | 41.7 | 19 | 10.4 | 53.1 | > 48.4 | 12.7 | 2.21 | 12.6 | 13 | 2.38 | 8.36 | 2.45 | 0.629 | 15.1 | 5.1 | 0.831 | 0.326 | 2.08 | 2.45
COc1ccccc1NC(=O)c1nc2ccc([N+](=O)[O-])cc2nc1C | > 100 | > 100 | > 100 | > 100 | > 100 | > 100 | > 100 | > 100 | > 100 | > 100 | – | – | – | – | – | – | – | – | – | –
Cc1cc(C(C)(C)C)cc(CNC2CCCCC2)c1O | 30.3 | 33.8 | 31.4 | 31.4 | 47.6 | 26.9 | 29.4 | 92.4 | 29.5 | 29.9 | – | – | – | – | – | – | – | – | – | –
COc1ccc(/C=C2\C=C(c3ccccc3)N(CCc3ccccc3)C2=O)cc1OC | 5.32 | 17.7 | 54 | > 100 | – | 52.1 | > 100 | – | 21.8 | 9.31 | 2.25 | 5.06 | 10.4 | 11.1 | 2.72 | 4.93 | 8.84 | – | 4.88 | 3.2
O=C(COC(=O)c1cccc2c(=O)c3ccccc3[nH]c12)Nc1ccc(C(=O)O)cc1 | > 100 | > 100 | > 100 | – | > 100 | > 100 | > 100 | > 100 | > 100 | > 100 | – | – | – | – | – | – | – | – | – | –
